Drawing on BindingDB's records for patent US10150764 (Epizyme, 2018), this text covers IC50 for 1 compound.

Assay [1] has as its target Histone-lysine N-methyltransferase EZH2 (Homo sapiens, UniProt Q15910). The experiment in a line: Wild-Type PRC2 Enzyme Assay.
Description: (§1) The assays were performed in a buffer consisting of 20 mM bicine (pH=7.6), 0.5 mM DTT, 0.005% BSG, 100 mM KCl and 0.002% Tween20, prepared on the day of use. […] DMSO (1 μL) was added to columns 11, 12, 23, 24, rows A-H for the maximum signal control, and SAH, a known product and inhibitor of PRC2 (1 μL) was added to columns 11, 12, 23, 24, rows I-P for the minimum signal control. A cocktail (40 μL) containing the wild-type PRC2 enzyme and chicken erythrocyte oligonucleosome was added by Multidrop Combi (Thermo). The compounds were allowed to incubate with PRC2 for 30 min at 25° C., then a cocktail (10 μL) containing a mixture of non-radioactive and 3H-SAM was added to initiate the reaction (final volume=51 μL). […] The assay was stopped by the addition of non-radioactive SAM (10 μL) to a final concentration of 600 μM, which dilutes the 3H-SAM to a level where its incorporation into the chicken erythrocyte olignonucleosome substrate is no longer detectable. […] The plates were then read in a PerkinElmer TopCount platereader to measure the quantity of 3H-labeled chicken erythrocyte oligonucleosome bound to the Flashplate surface, measured as disintegrations per minute (dpm) or alternatively, referred to as counts per minute (cpm).
Assay [2] concerns the target Histone-lysine N-methyltransferase EZH2 [Y641F] (Homo sapiens, UniProt Q15910, Y641F). The assay can be described thus: Wild-Type PRC2 Enzyme Assay.
Description: as §1

Histone-lysine N-methyltransferase EZH2, sequence (Q15910 whole entry): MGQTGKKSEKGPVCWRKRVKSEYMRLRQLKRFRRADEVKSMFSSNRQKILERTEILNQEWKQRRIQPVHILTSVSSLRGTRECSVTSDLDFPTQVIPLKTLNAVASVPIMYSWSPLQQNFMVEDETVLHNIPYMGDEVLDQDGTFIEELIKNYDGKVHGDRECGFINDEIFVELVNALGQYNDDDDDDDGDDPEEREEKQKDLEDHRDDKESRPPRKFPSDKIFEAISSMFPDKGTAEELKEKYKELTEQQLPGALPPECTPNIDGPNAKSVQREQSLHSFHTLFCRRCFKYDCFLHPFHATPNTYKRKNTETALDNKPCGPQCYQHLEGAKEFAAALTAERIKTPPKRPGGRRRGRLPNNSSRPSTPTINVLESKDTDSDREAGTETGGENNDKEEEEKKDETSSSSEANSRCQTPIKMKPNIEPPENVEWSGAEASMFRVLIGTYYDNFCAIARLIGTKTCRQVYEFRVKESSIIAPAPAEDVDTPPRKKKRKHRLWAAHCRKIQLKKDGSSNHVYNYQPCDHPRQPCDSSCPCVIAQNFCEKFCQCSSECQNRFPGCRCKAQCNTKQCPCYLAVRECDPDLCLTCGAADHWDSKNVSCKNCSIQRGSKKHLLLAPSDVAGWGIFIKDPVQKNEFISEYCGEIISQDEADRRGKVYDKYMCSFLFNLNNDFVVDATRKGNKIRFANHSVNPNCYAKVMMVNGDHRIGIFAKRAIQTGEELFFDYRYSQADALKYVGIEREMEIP
Histone-lysine N-methyltransferase EZH2 [Y641F], sequence (Q15910 whole entry Y641F): as the sequence (Q15910 whole entry) above, with Y641F counted along it

For the compound `CCN(c1cc(Cl)cc(C(=O)NCc2c(C)cc3cc[nH]n3c2=O)c1C)[C@H]1CC[C@H](N(C)C)CC1` [US10150764, Compound 2], the results for the 50% inhibitory concentration (IC50) in assay [1] and in assay [2] were 15.1 µM and 8.35 µM, respectively.
